Laboratory results taken from patent US12428394B2, “2,4-disubstituted pyrimidine derivative, preparation method therefor and use thereof” (CHENGDU ZENITAR BIOMEDICAL TECHNOLOGY CO., LTD., priority 2019, dated 2025).

Experiments:
[1] = test system: MV4-11 cells (FLT3-ITD+/+); assay: Inhibition of cell proliferation by MTT experiment, MV4-11; format: cell-based, human; conditions: Homo sapiens, MV4-11; MTT, 72 h; read-out: IC50 value on cell proliferation inhibition, MV4-11 FLT3-ITD+/+
Procedure, shortened: (§1)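 MTT assay in MV4-11, MOLM-13 (FLT3-ITD) and SET-2 (JAK2 V617F) cells at 10,000–15,000 cells/well in IMDM with 10% FBS. Cells are exposed to compound for 72 h at 37 °C, then to MTT for 1–3 h. IC50 is fitted from inhibition rates across concentrations.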

[2] = test system: MOLM-13 cells (FLT3-ITD-/+); assay: Inhibition of cell proliferation by MTT experiment, MOLM-13; format: cell-based, human; conditions: Homo sapiens, MOLM-13; MTT, 72 h; read-out: IC50 value on cell proliferation inhibition, MOLM-13 FLT3-ITD-/+
Procedure, shortened: as §1

SET-2 cells (JAK2 V617F) = assay: Inhibition of cell proliferation by MTT experiment, SET-2; format: cell-based; conditions: Homo sapiens, SET-2; MTT, 72 h; read-out: IC50 value on cell proliferation inhibition, SET-2 (V617F)
Procedure, shortened: as §1

FLT3 = target: T1, FLT3 (Homo sapiens, UniProt P36888); assay: In vitro kinase activity experiment, FLT3; format: biochemical; conditions: for inhibition at 0.5 µM: 40 min, inhibition rate of enzyme at 500 nM, measured by Eurofins, read-out: Kinase activity @ 500 nM (%) FLT3
T1 construct: purchased Eurofins
T1 sequence (P36888 27-993): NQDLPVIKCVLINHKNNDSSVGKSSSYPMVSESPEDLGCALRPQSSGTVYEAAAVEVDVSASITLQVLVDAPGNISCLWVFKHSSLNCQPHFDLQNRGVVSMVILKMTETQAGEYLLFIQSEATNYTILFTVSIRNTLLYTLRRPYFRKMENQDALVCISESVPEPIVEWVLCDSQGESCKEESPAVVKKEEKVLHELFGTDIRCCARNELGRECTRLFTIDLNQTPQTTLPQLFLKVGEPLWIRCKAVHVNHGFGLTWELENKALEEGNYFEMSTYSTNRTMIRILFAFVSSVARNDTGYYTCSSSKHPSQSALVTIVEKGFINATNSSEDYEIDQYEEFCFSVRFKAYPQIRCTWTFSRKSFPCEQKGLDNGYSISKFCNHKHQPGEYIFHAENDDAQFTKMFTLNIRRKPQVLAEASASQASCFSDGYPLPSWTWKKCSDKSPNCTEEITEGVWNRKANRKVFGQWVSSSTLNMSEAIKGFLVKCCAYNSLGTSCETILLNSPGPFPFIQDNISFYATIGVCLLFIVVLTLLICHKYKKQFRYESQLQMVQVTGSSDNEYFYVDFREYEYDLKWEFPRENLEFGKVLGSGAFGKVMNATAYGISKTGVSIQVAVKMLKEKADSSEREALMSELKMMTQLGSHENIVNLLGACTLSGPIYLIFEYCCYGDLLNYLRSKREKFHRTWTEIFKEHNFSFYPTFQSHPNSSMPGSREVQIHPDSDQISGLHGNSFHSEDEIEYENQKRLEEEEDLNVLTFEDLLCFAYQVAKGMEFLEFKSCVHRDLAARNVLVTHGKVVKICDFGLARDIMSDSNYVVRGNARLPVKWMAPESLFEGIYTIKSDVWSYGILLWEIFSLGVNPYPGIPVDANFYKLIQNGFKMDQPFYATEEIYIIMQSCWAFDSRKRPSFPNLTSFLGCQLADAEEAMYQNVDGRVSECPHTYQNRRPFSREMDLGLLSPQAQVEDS
Procedure, shortened: (§2)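 Reactions began on MgATP addition after the kinase, substrate, γ33P-ATP, 10 mM magnesium acetate and compound series were mixed in MOPS buffer pH 7.0 with EDTA and MnCl2. After 40 min at room temperature, phosphate quench, filter-mat capture and washing, incorporated 33P was measured by scintillation counting.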

JAK2 = target: T2, JAK2 (Homo sapiens, UniProt O60674); assay: In vitro kinase activity experiment, JAK2; format: biochemical; conditions: for Kinase activity @ 500 nM (%) JAK2: inhibition rate of enzyme at 500 nM, measured by Eurofins
T2 construct: purchased Eurofins
T2 sequence (O60674 whole entry): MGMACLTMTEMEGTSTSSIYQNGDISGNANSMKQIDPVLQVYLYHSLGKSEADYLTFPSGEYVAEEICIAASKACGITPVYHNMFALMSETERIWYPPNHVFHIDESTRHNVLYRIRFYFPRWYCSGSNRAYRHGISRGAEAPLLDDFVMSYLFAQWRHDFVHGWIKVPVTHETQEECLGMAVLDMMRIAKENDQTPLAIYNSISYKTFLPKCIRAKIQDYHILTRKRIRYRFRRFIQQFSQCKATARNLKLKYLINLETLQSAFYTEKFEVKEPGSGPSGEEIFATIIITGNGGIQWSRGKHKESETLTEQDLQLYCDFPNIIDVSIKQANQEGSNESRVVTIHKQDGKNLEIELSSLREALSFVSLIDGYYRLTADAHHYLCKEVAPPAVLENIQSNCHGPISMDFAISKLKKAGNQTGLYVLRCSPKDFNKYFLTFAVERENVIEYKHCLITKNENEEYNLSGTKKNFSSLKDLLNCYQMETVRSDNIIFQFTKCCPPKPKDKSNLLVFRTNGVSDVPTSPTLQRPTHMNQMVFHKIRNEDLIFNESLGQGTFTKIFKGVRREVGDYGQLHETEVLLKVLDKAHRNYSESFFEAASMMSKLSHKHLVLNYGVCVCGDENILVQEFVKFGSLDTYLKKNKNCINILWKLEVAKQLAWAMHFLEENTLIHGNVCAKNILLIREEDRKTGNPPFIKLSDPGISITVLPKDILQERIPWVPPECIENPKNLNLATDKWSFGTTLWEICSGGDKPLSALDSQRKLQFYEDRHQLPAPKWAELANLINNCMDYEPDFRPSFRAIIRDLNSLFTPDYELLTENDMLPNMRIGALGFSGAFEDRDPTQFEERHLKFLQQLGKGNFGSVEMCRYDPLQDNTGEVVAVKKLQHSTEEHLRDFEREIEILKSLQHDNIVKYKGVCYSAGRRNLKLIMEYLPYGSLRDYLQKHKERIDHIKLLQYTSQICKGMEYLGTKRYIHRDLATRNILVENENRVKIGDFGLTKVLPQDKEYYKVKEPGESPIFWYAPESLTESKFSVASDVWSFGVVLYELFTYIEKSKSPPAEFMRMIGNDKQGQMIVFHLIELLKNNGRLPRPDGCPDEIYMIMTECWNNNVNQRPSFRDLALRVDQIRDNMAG
Procedure, shortened: as §2

JAK1 = target: T3, JAK1 (Homo sapiens, UniProt P23458); assay: In vitro kinase activity experiment, JAK1; format: biochemical
T3 construct: purchased Eurofins
T3 sequence (P23458 whole entry): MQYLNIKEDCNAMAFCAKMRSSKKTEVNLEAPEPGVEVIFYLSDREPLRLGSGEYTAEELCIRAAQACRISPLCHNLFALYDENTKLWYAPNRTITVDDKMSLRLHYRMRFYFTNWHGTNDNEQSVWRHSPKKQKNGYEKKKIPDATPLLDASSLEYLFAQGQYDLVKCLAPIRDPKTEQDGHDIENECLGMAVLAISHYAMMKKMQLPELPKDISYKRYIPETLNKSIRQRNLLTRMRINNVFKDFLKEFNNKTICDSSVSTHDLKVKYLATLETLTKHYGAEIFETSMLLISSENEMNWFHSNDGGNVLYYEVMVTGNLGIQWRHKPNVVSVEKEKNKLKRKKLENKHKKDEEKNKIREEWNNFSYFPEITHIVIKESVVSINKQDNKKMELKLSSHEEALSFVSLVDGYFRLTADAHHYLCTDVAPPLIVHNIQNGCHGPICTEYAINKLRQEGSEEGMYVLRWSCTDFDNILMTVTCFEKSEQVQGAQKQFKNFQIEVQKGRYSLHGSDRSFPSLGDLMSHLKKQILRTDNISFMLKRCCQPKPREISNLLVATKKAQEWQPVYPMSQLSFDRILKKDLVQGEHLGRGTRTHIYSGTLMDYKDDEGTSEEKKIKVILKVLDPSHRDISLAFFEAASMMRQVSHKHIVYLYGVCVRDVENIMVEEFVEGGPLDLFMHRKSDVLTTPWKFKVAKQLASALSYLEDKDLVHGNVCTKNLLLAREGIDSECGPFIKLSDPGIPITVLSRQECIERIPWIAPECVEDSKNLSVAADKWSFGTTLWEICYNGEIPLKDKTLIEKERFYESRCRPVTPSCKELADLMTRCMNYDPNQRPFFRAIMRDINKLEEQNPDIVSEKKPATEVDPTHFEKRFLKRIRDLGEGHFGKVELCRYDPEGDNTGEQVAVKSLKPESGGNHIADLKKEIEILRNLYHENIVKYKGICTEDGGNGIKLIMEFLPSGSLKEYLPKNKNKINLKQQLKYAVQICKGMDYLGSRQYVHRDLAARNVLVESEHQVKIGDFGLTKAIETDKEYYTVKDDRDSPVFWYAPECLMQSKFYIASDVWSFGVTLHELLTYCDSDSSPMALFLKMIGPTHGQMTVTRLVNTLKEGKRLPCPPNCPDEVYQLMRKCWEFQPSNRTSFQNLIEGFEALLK
Procedure: (§3) Buffer solution ([…], pH 7.0, 0.2 mm EDTA, 10 mM mncl2), kinase to be tested, substrate of kinase to be tested, 10 mM magnesium acetate and γ33P-ATP solution, and compounds with different concentrations were added to a reaction tube in turn, then MgATP was added to initiate the enzyme reaction process, and incubated at room temperature for 40 min. Then, the reaction was terminated with 5 μl of […], and 10 μl of the reaction solution was titrated onto the Filtermat A membrane, washed with 75 mM phosphate solution for three times, each time for 5 min., and then washed with methanol once. Finally, the Filtermat A membrane was dried and the scintillation count was carried out.

JAK3 = target: T4, JAK3 (Homo sapiens, UniProt P52333); assay: In vitro kinase activity experiment, JAK3; format: biochemical
T4 construct: purchased Eurofins
T4 sequence (P52333 1-1124): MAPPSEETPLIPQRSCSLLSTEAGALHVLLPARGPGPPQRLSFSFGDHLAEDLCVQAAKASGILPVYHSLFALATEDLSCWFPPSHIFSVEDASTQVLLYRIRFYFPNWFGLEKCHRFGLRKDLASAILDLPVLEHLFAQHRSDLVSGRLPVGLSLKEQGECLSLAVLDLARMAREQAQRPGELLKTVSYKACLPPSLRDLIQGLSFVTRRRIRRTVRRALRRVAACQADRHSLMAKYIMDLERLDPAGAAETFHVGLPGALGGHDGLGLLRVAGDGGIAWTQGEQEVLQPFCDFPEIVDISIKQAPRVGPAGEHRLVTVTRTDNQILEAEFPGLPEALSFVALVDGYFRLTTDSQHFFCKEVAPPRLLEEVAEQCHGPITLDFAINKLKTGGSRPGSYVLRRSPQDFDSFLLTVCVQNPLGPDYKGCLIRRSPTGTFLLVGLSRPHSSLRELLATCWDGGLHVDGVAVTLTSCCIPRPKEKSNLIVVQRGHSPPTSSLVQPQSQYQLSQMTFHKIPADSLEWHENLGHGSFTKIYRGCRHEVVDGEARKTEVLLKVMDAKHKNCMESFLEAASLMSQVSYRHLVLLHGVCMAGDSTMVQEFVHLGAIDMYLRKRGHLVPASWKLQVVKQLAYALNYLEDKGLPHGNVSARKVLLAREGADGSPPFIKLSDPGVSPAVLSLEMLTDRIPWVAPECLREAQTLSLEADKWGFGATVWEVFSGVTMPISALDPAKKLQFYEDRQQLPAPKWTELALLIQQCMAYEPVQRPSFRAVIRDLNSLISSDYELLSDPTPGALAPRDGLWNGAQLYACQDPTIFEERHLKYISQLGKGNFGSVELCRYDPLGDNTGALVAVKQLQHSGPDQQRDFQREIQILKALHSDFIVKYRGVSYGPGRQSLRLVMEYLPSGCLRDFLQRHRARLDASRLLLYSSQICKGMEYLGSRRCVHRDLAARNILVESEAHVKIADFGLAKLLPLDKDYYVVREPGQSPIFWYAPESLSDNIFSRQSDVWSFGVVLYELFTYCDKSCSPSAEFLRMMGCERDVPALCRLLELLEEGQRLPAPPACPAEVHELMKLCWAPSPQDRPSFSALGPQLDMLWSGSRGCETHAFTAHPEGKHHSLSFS
Procedure: as §3

[3] = test system: Ba/F3-EpoR-JAK2V617F cells; assay: Ba/F3-EpoR-JAK2V617F-driven malignant tumor mouse model; format: in vivo, Babl/c-nude mice; conditions: 30 mg/Kg, oral twice a day
Procedure: Babl/c-nude mice (Beijing Huafukang Biotechnology Co., Ltd.) were received and acclimated to the environment until these mice were normalized in diet and activity, and the modeling began. Ba/F3-EpoR-JAK2V617F cells (State Key Laboratory of Biotherapy, Sichuan University) were routinely incubated and grew to 80% fusion degree. Then the cells were centrifuged at 1000 rpm for 3 min., collected, resuspended by PBS and counted by a cell counter; while the survival rate of the cells was calculated. Only when the proportion of living cells exceeds 90%, can the cells be used in the experiment, with the cell concentration adjusted to 1×10^7 cells/mL. After the cells were collected, the cell suspension was pre-cooled on ice. Each mouse was inoculated as per 1.0×10^6, and batch induction modeling was carried out.

JAK2V617F = assay: JAK2V617F-induced myelofibrosis mouse model; format: in vivo, BALB/c mice; conditions: 30 mg/Kg, oral twice a day, after 8 weeks of treatment
Excerpt: JAK2 mutant JAK2V617F gene vector MSCV-JAK2V617F-GFP (Chengdu Wandao Biotechnology Development Co., Ltd.) and BALB/c mice (Jiangsu Jicui Yaokang Biotechnology Co., Ltd.) were provided as donors. The mouse bone marrow cells were sampled and infected with JAK2V617F virus, and the infected cells were reinfused into BALB/c recipient mice irradiated by X-rays through tail vein. Then, the JAK2V617F-positive myelofibrosis mouse model was induced. […] The administration route was oral administration twice a day, and the mice in the blank control group and the model group took the same volume of normal saline orally. […] Therefore, modifications or improvements made without departing from the spirit of the present invention are within the scope of protection of the present invention.

| IC50 [1] | IC50 [2] | IC50 (FLT3) | inhibition at 0.5 µM (FLT3) | IC50 (JAK2) | Kinase activity @ 500 nM (%) JAK2 (JAK2) | IC50 (JAK1) | IC50 (JAK3) | SMILES | IC50 (SET-2 cells (JAK2 V617F)) | inhibition of spleen growth [3] | inhibition of growth rate of spleen (JAK2V617F) |
| --- | --- | --- | --- | --- | --- | --- | --- | --- | --- | --- | --- |
| 0.001 to 0.01 µM | 0.01 to 0.1 µM | 0.009 µM | 102% | 0.001 µM | 106% | 0.047 µM | 0.023 µM | Cc1cnc(Nc2ccc(N3CCC(N(C)CC4CC4)CC3)c(F)c2)nc1-c1cnn(C(C)C)c1 [CLJ-52, 5-methyl-N-(3-fluoro-4-(4-N-cyclopropanemethyl-4-N-methylaminopiperidine-1-yl)phenyl)-4-(1-isopropyl-1H-pyrazole-4-yl) pyrimidine-2-amine] | 0.1 to 1 µM |  |  |
| 0.01 to 0.1 µM | 0.01 to 0.1 µM | 0.011 µM | 97% | 0.003 µM | 100% | 0.121 µM | 0.103 µM | Cc1cnc(Nc2ccc(N3CCC(N(C)CCO)CC3)c(F)c2)nc1-c1cn(C(C)C)nc1S(C)(=O)=O [CLJ-91, 5-methyl-N-(3-fluoro-4-(4-N-hydroxyethyl-4-N-methylaminopiperidine-1-yl)phenyl)-4-(1-isopropyl-3-methylsulfonyl-1H-pyrazole-4-yl) pyrimidine-2-amine] | 0.1 to 1 µM |  |  |
| 0.01 to 0.1 µM | 0.01 to 0.1 µM | 0.015 µM | 94% | 0.002 µM | 99% | 0.076 µM | 0.039 µM | Cc1cnc(Nc2ccc(NS(=O)(=O)c3ccc(C(F)(F)F)cc3)c(F)c2)nc1-c1cnn(C(C)C)c1 [CLJ-94, N-(2-fluoro-4-((4-(1-isopropyl-1H-pyrazole-4-yl)-5-methylpyrimidine-2-yl)amino)phenyl)-4-(trifluoromethyl) benzenesulfonamide] | 0.1 to 1 µM |  |  |
|  |  |  |  |  |  |  |  | Cc1cnc(Nc2ccc(OCCN3CCCC3)cc2)nc1Nc1cccc(S(=O)(=O)NC(C)(C)C)c1 [Fedratinib, reference compound] |  | 40.23% | 29.46% |
